# Laboratory results reported in patent publication US5059625A, “Polyglycidol amine oxide surfactants having antimicrobial activity” (Olin Corporation, priority 1990, dated 1991).
# How the values were obtained:
# [1] = Solubility in 50% sodium hydroxide solution; format: physicochemical
# Procedure: A 500 ml, 3-necked round bottom flask was fitted with a mechanical stirrer, thermometer, nitrogen inlet, dropping funnel and vent. Under the nitrogen atmosphere, Armeen CD^(1), 15 g (0.075 mole) was placed in the flask and the contents heated to 138° C. Glycidol in an amount of 16.67 g (0.225 mole) was placed in the dropping funnel and glycidol addition to the Armeen CD was initiated at a rate of approximately 0.15 g/minute. Reaction temperature was maintained at 140°-152° C. and glycidol addition was completed in about 2 hours. The reaction mixture was stirred and heated at reaction temperature an additional 2 hours. The flask and its contents were then cooled and the product removed. […] This product was referred to as cocamine 3-mole glycidol adduct and its molecular weight was 422.
# All three products were soluble in 50% sodium hydroxide solution.
# A[…] (Fungus) = test: Minimum Inhibitory Concentration (MIC) test; format: cell-based; details: Aspergillus niger (fungus)
# Procedure: (§1) Minimum Inhibitory Concentration (MIC's) were determined and compared to a nonylphenol-glycidol based surfactant.
# E[…] (Gram Negative) = test: Minimum Inhibitory Concentration (MIC) test; format: cell-based; details: Escheridida coli (Gram negative)
# Procedure: as §1
# [2] = tested on: STAPHYLOCOCCUS AUREUS (Gram positive); test: Minimum Inhibitory Concentration (MIC) test; format: cell-based
# Procedure: as §1
# [3] = Surface tension (ASTM Designation D1331-56); format: physicochemical; details: 0.1 wt. % concentration; ASTM D1331-56
# Text: The surface tensions (ASTM Designation D1331-56) of the products at 0.1 wt. % concentration were as follows: […]
Substance,solubility in 50% sodium hydroxide solution [1],Minimum Inhibitory Concentration (A[…] (Fungus)) [PPM],Minimum Inhibitory Concentration (E[…] (Gram Negative)) [PPM],Minimum Inhibitory Concentration [2] [PPM],surface tension [3] [dynes/cm]
cocamine 3-mole glycidol adduct,soluble and clear,,,,
Armeen CD-3m glycidol amine [Example I],,128,256,32,32.3
